Experimental data reported in patent US20130005747A1, “METHOD FOR SELECTING A CANCER THERAPY” (Cyclacel Limited, priority 2010, published 2013).

Key:
[1] = tested on: HOP-62 human lung cancer cell line; assay: Growth inhibition of lung cancer cells (FIG. 6); format: cell-based; settings: for growth inhibition / sensitivity (in words): 72 hours post-treatments
Text: (§1) Thus, findings from this large panel of cancer cell lines indicated significant roscovitine sensitivity well beyond those human and murine lung cancer cells already investigated. For lung cancer cells, this response is tightly associated with the presence of ras activation in highly responsive cells.

[2] = tested on: H-522 human lung cancer cell line; assay: Growth inhibition of lung cancer cells (FIG. 6); format: cell-based; settings: for growth inhibition / sensitivity (in words): 72 hours post-treatments, wild-type ras
Text: as §1

[3] = tested on: MKN1; assay: Fractional growth, 72 h seliciclib; format: cell-based, human; settings: MKN1 (Stomach), 15 μM seliciclib
Text: (§2) A total of 270 human cancer cell lines from diverse cancer histopathologic types were investigated.

[4] = tested on: Panc 03.27; assay: Fractional growth, 72 h seliciclib; format: cell-based, human; settings: Panc 03.27 (Pancreas), 15 μM seliciclib
Text: as §2

[5] = tested on: JHU-028; assay: Fractional growth, 72 h seliciclib; format: cell-based, human; settings: JHU-028 (Head & Neck), 15 μM seliciclib
Text: as §2

[6] = tested on: T84; assay: Fractional growth, 72 h seliciclib; format: cell-based, human; settings: T84 (Intestine), 15 μM seliciclib
Text: as §2

[7] = tested on: A-204; assay: Fractional growth, 72 h seliciclib; format: cell-based, human; settings: A-204 (Muscle), 15 μM seliciclib
Text: as §2

[8] = tested on: HT 1376; assay: Fractional growth, 72 h seliciclib; format: cell-based, human; settings: HT 1376 (Bladder), 15 μM seliciclib
Text: as §2

[9] = tested on: PL4; assay: Fractional growth, 72 h seliciclib; format: cell-based, human; settings: PL4 (Pancreas), 15 μM seliciclib
Text: as §2

[10] = tested on: EJ138; assay: Fractional growth, 72 h seliciclib; format: cell-based, human; settings: EJ138 (Bladder), 15 μM seliciclib
Text: as §2

[11] = tested on: Ca9-22; assay: Fractional growth, 72 h seliciclib; format: cell-based, human; settings: Ca9-22 (Head & Neck), 15 μM seliciclib
Text: as §2

[12] = tested on: SCC-25; assay: Fractional growth, 72 h seliciclib; format: cell-based, human; settings: SCC-25 (Head & Neck), 15 μM seliciclib
Text: as §2

[13] = tested on: Hs 766T; assay: Fractional growth, 72 h seliciclib; format: cell-based, human; settings: Hs 766T (Pancreas), 15 μM seliciclib
Text: as §2

[14] = tested on: KATO III; assay: Fractional growth, 72 h seliciclib; format: cell-based, human; settings: KATO III (Stomach), 15 μM seliciclib
Text: as §2

[15] = tested on: SN-12C; assay: Fractional growth, 72 h seliciclib; format: cell-based, human; settings: SN-12C (Kidney), 15 μM seliciclib
Text: as §2

[16] = tested on: UO-31; assay: Fractional growth, 72 h seliciclib; format: cell-based, human; settings: UO-31 (Kidney), 15 μM seliciclib
Text: as §2

[17] = tested on: NCI-H520; assay: Fractional growth, 72 h seliciclib; format: cell-based, human; settings: NCI-H520 (Lung: NSCLC), 15 μM seliciclib
Text: as §2

[18] = tested on: A673; assay: Fractional growth, 72 h seliciclib; format: cell-based, human; settings: A673 (Muscle), 15 μM seliciclib
Text: as §2

[19] = tested on: HLE; assay: Fractional growth, 72 h seliciclib; format: cell-based, human; settings: HLE (Liver), 15 μM seliciclib
Text: as §2

[20] = tested on: G-401; assay: Fractional growth, 72 h seliciclib; format: cell-based, human; settings: G-401 (Kidney), 15 μM seliciclib
Text: as §2

[21] = tested on: T98G; assay: Fractional growth, 72 h seliciclib; format: cell-based, human; settings: T98G (Brain), 15 μM seliciclib
Text: as §2

[22] = tested on: PCI-15B; assay: Fractional growth, 72 h seliciclib; format: cell-based, human; settings: PCI-15B (Head & Neck), 15 μM seliciclib
Text: as §2

[23] = tested on: HPAF-II; assay: Fractional growth, 72 h seliciclib; format: cell-based, human; settings: HPAF-II (Pancreas), 15 μM seliciclib
Text: as §2

[24] = tested on: T47D; assay: Fractional growth, 72 h seliciclib; format: cell-based, human; settings: T47D (Breast), 15 μM seliciclib
Text: as §2

[25] = tested on: MCF7; assay: Fractional growth, 72 h seliciclib; format: cell-based, human; settings: MCF7 (Breast), 15 μM seliciclib
Text: as §2

[26] = tested on: C-4 II; assay: Fractional growth, 72 h seliciclib; format: cell-based, human; settings: C-4 II (Cervix), 15 μM seliciclib
Text: as §2

[27] = tested on: SW756; assay: Fractional growth, 72 h seliciclib; format: cell-based, human; settings: SW756 (Cervix), 15 μM seliciclib
Text: as §2

[28] = tested on: MG-63; assay: Fractional growth, 72 h seliciclib; format: cell-based, human; settings: MG-63 (Bone), 15 μM seliciclib
Text: as §2

[29] = tested on: PCI-15A; assay: Fractional growth, 72 h seliciclib; format: cell-based, human; settings: PCI-15A (Head & Neck), 15 μM seliciclib
Text: as §2

[30] = tested on: LS174T; assay: Fractional growth, 72 h seliciclib; format: cell-based, human; settings: LS174T (Intestine), 15 μM seliciclib
Text: as §2

[31] = tested on: MDA-MB-231; assay: Fractional growth, 72 h seliciclib; format: cell-based, human; settings: MDA-MB-231 (Breast), 15 μM seliciclib
Text: as §2

[32] = tested on: AU565; assay: Fractional growth, 72 h seliciclib; format: cell-based, human; settings: AU565 (Breast), 15 μM seliciclib
Text: as §2

[33] = tested on: NCI-H2452; assay: Fractional growth, 72 h seliciclib; format: cell-based, human; settings: NCI-H2452 (Lung), 15 μM seliciclib
Text: as §2

[34] = tested on: NCI-H2172; assay: Fractional growth, 72 h seliciclib; format: cell-based, human; settings: NCI-H2172 (Lung: NSCLC), 15 μM seliciclib
Text: as §2

[35] = tested on: H2052; assay: Fractional growth, 72 h seliciclib; format: cell-based, human; settings: H2052 (Lung), 15 μM seliciclib
Text: as §2

[36] = seliciclib combined with docetaxel
[37] = seliciclib combined with paclitaxel

In the case of CC[C@H](CO)Nc1nc(NCc2ccccc2)c2ncn(C(C)C)c2n1 [seliciclib, roscovitine], the “growth inhibition / sensitivity (in words)” value ([1]; listed as Seliciclib) is reported as “dose-dependent growth inhibition”, the “growth inhibition / sensitivity (in words)” value ([1]; listed as roscovitine) is reported as “more sensitive to roscovitine that H-522 lung cancer cells” and the “proliferation, combined treatment (in words)” value (from here on “proliferation … (in words)”) [1, 36] is reported as “cooperatively inhibited proliferation”. For the same compound, the “proliferation … (in words)” value [1, 37] was “cooperatively inhibited proliferation”, the “growth inhibition / sensitivity (in words)” value ([2]; listed as Seliciclib) was “dose-dependent growth inhibition” and the “growth inhibition / sensitivity (in words)” value ([2]; listed as roscovitine) was “less sensitive than others examined”. For the same compound, the “proliferation … (in words)” value [2, 36] was “cooperatively inhibited proliferation”, the “proliferation … (in words)” value [2, 37] was “cooperatively inhibited proliferation” and the “Fractional Growth” value [3] was 0.3594. The “Fractional Growth” value [4] was 0.5632, the “Fractional Growth” value [5] was 0.5325 and the “Fractional Growth” value [6] was 0.5371. The “Fractional Growth” value [7] was 0.2653, the “Fractional Growth” value [8] was 0.6897 and the “Fractional Growth” value [9] was 0.057. The “Fractional Growth” value [10] was 0.3103, the “Fractional Growth” value [11] was 0.4623 and the “Fractional Growth” value [12] was 0.571. For the same compound, the “Fractional Growth” value [13] was 0.4284, the “Fractional Growth” value [14] was 0.4299 and the “Fractional Growth” value [15] was 0.6383. The “Fractional Growth” value [16] was 0.3152, the “Fractional Growth” value [17] was 0.6863 and the “Fractional Growth” value [18] was 0.4111. The “Fractional Growth” value [19] was 0.1553, the “Fractional Growth” value [20] was 0.3542 and the “Fractional Growth” value [21] was 0.4404. For the same compound, the “Fractional Growth” value [22] was 0.2847, the “Fractional Growth” value [23] was 0.4628 and the “Fractional Growth” value [24] was 0.6314. The “Fractional Growth” value [25] was 0.4137, the “Fractional Growth” value [26] was 0.7489 and the “Fractional Growth” value [27] was 0.6484. For the same compound, the “Fractional Growth” value [28] was 0.5484, the “Fractional Growth” value [29] was 0.4965 and the “Fractional Growth” value [30] was 0.3713. The “Fractional Growth” value [31] was 0.4643, the “Fractional Growth” value [32] was 0.4762 and the “Fractional Growth” value [33] was 0.4571. For the same compound, the “Fractional Growth” value [34] was 0.6197 and the “Fractional Growth” value [35] was 0.3892.
